Experimental data from patent publication US9974782B2, “Phosphodiesterase inhibitors and uses thereof” (THE TRUSTEES OF COLUMBIA UNIVERSITY IN THE CITY OF NEW YORK, priority 2008, dated 2018).
“Also recorded” adds a separate entry of the source. Where two headings read alike, the source gives them in different places.

Tests used:
[1] = tested on: PDE4; conditions: cited from earlier work
[2] = target: PDE2 (Homo sapiens, UniProt O00408); conditions: cited from earlier work
[3] = tested on: PDE1; conditions: cited from earlier work
[4] = tested on: isolated rabbit corpus cavernosum; conditions: read-out: EC50, relaxant effect; cited from earlier work
[5] = target: PDE5 (Homo sapiens, UniProt O76074); conditions: cited from earlier work
[6] = tested on: PDE3; conditions: cited from earlier work
[7] = tested on: PDE6; conditions: cited from earlier work
[8] = rat, in vivo; cited from earlier work
[9] = tested on: human Aβ40 and Aβ42 levels; conditions: rolipram, earlier study; cited from earlier work
[10] = tested on: CA1 region of hippocampal slices from APP/PS1 and WT mice; experiment: Electrophysiological analysis (BST, LTP) of hippocampal slices perfused with inhibitor; type: cell-based, mouse
[11] = tested on: APP/PS1 mice; experiment: Radial-arm water maze (spatial working memory); type: in vivo, mouse; conditions: APP/PS1 (transgenic) mice
Text: Next, the effect of treatment with sildenafil was examined on spatial working memory, a type of short-term memory that can be studied with the radial-arm water maze test. […] Mice were required to learn and memorize the location of a hidden platform in one of the arms of a maze with respect to spatial cues. […] However, daily injections of sildenafil for 3 weeks immediately after the 4th acquisition trial ameliorated the behavioural performance of APP/PS1 mice (FIG. 2B).
The effects of one course of 3-week treatment with sildenafil on spatial working memory were next tested using the radial-arm water-maze task. There was a difference between the number of errors made by vehicle-treated APP/PS1 and WT mice (FIG. 3B)^A12. Administration of sildenafil for 3 weeks, 9-12 weeks prior to the testing, reduced the gap between the two groups without affecting performance of the WT animals (FIG. 3B).
Three-month-old APP/PS1 and WT mice were separated into 4 groups: APP/PS1 mice treated with vehicle, APP/PS1 mice treated with PDE inhibitor, WT mice treated with vehicle, and WT mice treated with PDE inhibitor. […] In the remaining experiments, sildenafil was injected via i.p. The drug was administered either acutely or for 1 course of 3 week treatment. For assessment of the short-term effects of sildenafil, the drug was given at a concentration of 3 mg/kg immediately after the training. This dose yields concentrations of ˜2.5 μM cGMP in the hippocampus^A53. For assessment of long-term effects, sildenafil was given daily by i.p. injection at a concentration of 3 mg/kg for 3 weeks and then treatment was stopped for 9-12 weeks prior to behavioral testing. Contextual and cued fear conditioning was performed for 3 days. Radial-arm water-maze (RAWM) was performed for 3 weeks. Then, the animals were sacrificed for electrophysiological recordings. To decide the time of administration of sildenafil in the acute experiments, a series of studies was performed in which the inhibitor was injected i.p. at 5 min before the electric shock or at 5 min before the first acquisition trial with the radial arm water maze. […] Thus, all the behavioral experiments on the acute effects of sildenafil reported in the result section were performed with injection after the training.
This is a type of short-term memory that can be studied with the RAWM test^12. Briefly, the RAWM consisted of a white tank (120 cm diameter) filled with water (24-25° C.) and made opaque by the addition of non-toxic white paint. Within the tank walls were positioned so as to produce six arms, radiating from a central area. Spatial cues were presented on the walls of the testing room. At the end of one of the arms was positioned a clear 10 cm submerged (1.5 cm) platform that remained in the same location for every trial in one day, but was moved about randomly from day to day. On each trial the mouse started the task from a different randomly chosen arm. […] Each trial lasted 1 min and errors were counted each time the mouse entered the wrong arm or needed more than 20 sec to reach the platform. After each error the mouse was pulled back to the start arm for that trial. After 4 consecutive acquisition trials, the mouse was placed in its home cage for 30 min, then returned to the maze and administered a 5th retention trial. Testing was considered completed as the WT mice made the same number of errors at the 4th and 5th trial. The scores for each mouse on the last three days of testing were averaged and used for statistical analysis.

[12] = in vivo, cited from earlier work
[13] = tested on: APP/PS1 mice; experiment: Contextual and cued fear conditioning; type: in vivo, mouse; conditions: for effect on contextual fear memory in words: APP/PS1 (transgenic) mice
Protocol: Given that sildenafil reversed LTP deficits in 3-month-old APP/PS1, it was then tested whether the inhibitor reversed the cognitive defects in these animals. As reported above sildenafil offers the advantage of crossing the BBB and therefore it can be easily utilized in behavioural experiments. Three-month-old mice were divided into 4 groups: APP/PS1 with sildenafil, APP/PS1 with vehicle, WT with sildenafil and WT with vehicle. Sildenafil and vehicle control solutions were administered i.p. at a concentration of 3 mg/kg. This concentration was chosen based on previous studies showing that these amounts of sildenafil raise hippocampal cGMP levels and improve memory in aged rats^A6 and mice^A7 independent of vascular effects^A6. The effects of acute administration of sildenafil was first examined on fear-conditioning learning, a type of learning that is impaired in several AD mouse models^A14 and depends on hippocampus and amygdala. The hippocampus is indispensable for contextual fear conditioning^A15, a form of associative learning in which mice must associate a neutral stimulus with an aversive one. Mice were trained to associate neutral stimuli with an aversive one. They were placed in a new context (fear conditioning box), exposed to a white noise cue (CS) paired with a mild foot shock (US), and injected with sildenafil immediately after the training. Fear learning was assessed twenty-four hours later by measuring freezing behaviour—the absence of all movement except for that necessitated by breathing—in response to representation of the context or of the auditory cue within a completely different context. No difference was found in the freezing behaviour among the four groups of mice before the training phase (FIG. 2A). Twenty-four hours later, a decrease in the freezing behaviour of vehicle-treated APP/PS1 mice compared with that of vehicle-treated WT littermates in the analysis of the contextual learning was observed (FIG. 2A). […] Fear conditioning, a hippocampus-independent task A^15, was next tested and no difference in freezing among the 4 groups was found, as APP/PS1 mice are known to have a selective hippocampus-dependent impairment in associative learning^A14.
Sildenafil was tested to determine whether a brief course of treatment can provide long term benefits. The PDE5 inhibitor was examined to see if it maintains its protective effect against synaptic dysfunction and memory loss. In these experiments, both APP/PS1 and WT mice of 3 months of age were injected intraperitoneally with 3 mg/kg/day sildenafil for 3 weeks, then the treatment was stopped for 9-12 weeks prior to testing. The mice were next subjected to training for contextual learning. […] There were no differences between the 4 groups in the cued conditioning test.
Three-month-old APP/PS1 and WT mice were separated into 4 groups: APP/PS1 mice treated with vehicle, APP/PS1 mice treated with PDE inhibitor, WT mice treated with vehicle, and WT mice treated with PDE inhibitor. […] In the remaining experiments, sildenafil was injected via i.p. The drug was administered either acutely or for 1 course of 3 week treatment. For assessment of the short-term effects of sildenafil, the drug was given at a concentration of 3 mg/kg immediately after the training. This dose yields concentrations of ˜2.5 μM cGMP in the hippocampus^A53. For assessment of long-term effects, sildenafil was given daily by i.p. injection at a concentration of 3 mg/kg for 3 weeks and then treatment was stopped for 9-12 weeks prior to behavioral testing. Contextual and cued fear conditioning was performed for 3 days. Radial-arm water-maze (RAWM) was performed for 3 weeks. Then, the animals were sacrificed for electrophysiological recordings. To decide the time of administration of sildenafil in the acute experiments, a series of studies was performed in which the inhibitor was injected i.p. at 5 min before the electric shock or at 5 min before the first acquisition trial with the radial arm water maze. […]

[14] = WT slices, 120 min after tetanus, sildenafil 50 nM, tadalafil 50 nM, IC354 1 μM
[15] = WT slices, sildenafil or tadalafil 50 nM
[16] = slices of 3-month-old APP/PS1 mice, 120 min after tetanus, 10 min perfusion (sildenafil 50 nM, tadalafil 50 nM, IC354 1 μM)
[17] = 3 month-old WT, sildenafil 3 mg/Kg or tadalafil 1 mg/Kg i.p.

PDE2, sequence (O00408 whole entry): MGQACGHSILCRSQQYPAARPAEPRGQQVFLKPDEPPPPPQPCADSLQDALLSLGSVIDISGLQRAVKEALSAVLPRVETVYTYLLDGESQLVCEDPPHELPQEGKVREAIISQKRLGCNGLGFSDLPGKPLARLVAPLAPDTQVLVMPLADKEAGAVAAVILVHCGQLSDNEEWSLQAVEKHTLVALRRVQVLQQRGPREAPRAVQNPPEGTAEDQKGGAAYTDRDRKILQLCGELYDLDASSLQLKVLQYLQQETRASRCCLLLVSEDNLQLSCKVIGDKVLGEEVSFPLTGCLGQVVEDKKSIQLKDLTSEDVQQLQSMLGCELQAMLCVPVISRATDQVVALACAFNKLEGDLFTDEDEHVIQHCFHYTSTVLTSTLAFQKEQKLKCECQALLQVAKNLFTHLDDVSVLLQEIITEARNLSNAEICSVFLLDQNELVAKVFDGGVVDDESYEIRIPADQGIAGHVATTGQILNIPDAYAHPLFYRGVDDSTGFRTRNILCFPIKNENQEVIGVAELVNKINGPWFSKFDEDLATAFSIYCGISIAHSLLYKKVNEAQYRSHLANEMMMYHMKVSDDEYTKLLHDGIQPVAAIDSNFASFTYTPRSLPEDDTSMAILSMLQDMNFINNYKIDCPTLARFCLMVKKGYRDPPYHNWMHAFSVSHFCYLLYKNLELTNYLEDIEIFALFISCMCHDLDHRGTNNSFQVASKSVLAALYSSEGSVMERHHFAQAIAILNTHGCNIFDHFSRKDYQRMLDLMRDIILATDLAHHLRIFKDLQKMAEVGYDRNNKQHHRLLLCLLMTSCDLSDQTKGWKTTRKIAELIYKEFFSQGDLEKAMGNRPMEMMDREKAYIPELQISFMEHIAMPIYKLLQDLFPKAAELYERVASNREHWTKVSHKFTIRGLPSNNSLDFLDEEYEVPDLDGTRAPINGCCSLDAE

Structure (SMILES): COC(=O)c1c(-c2cc(OC)c(OC)c(OC)c2)c2ccc(OCc3ccccn3)cc2c(=O)n1-c1ccc(N)cc1.O=S(=O)(O)O [T1032]
- PDE4/PDE5 [1]: 4700
- PDE2/PDE5 [2]: > 10 000
- selectivity ratio for PDE1 (PDE1/PDE5) [3]: 1300
- EC50 [4]: 7.9 nM
- IC50 ([5]; read-out: IC50 against PDE5): < 1 nM
- PDE3/PDE5 [6]: > 10 000
- selectivity ratio for PDE6 (PDE6/PDE5) [7]: 28

Structure (SMILES): CCOC(=O)c1cc2c(cn1)[nH]c1ccccc12 [beta-CCE, Ethyl beta-carboline-3-carboxylate]
- PDE5 inhibition in words [5]: weak, non-selective PDE5 inhibitor

Structure (SMILES): Cc1cc(-c2ccccc2)nnc1NCCN1CCOCC1 [minaprine]
- brain/blood ratio [8]: > 2

Structure (SMILES): COc1ccc(C2CNC(=O)C2)cc1OC1CCCC1 (stereo not drawn) [rolipram]
- effect on Aβ in brains of APP/PS1 mice in words [9]: did not affect Aβ concentration; also recorded: did not affect Aβ load

Structure (SMILES): CN1CC(=O)N2C(Cc3c([nH]c4ccccc34)C2c2ccc3c(c2)OCO3)C1=O (stereo not drawn) [tadalafil, 6-benzo[1,3]dioxol-5-yl-2-methyl-2,3,6,7,12,12a-hexahydro-pyrazino[1′,2′:1,6]pyrido[3,4-b]indole-1,4-dione]
- LTP, fEPSP slope as % of baseline [10, 14]: 232.45±21.92%
- level of LTP as % of vehicle-treated WT slices [10, 14]: ~106%
- basal synaptic responses without tetanus as % of vehicle-treated WT slices [10, 15]: ~98%
- basal synaptic responses without tetanus, fEPSP % of baseline [10, 15]: 103.65±1.63%
- effect on LTP impairment in words ([10]; slices from APP/PS1 (transgenic) mice, 10 min prior to tetanus): reverses LTP impairment
- LTP, fEPSP slope as % of baseline [10, 16]: 209.49±13.89%
- level of LTP as % of vehicle-treated WT littermates [10, 16]: ~96%
- effect on spatial working memory (RAWM) in words [11]: does not improve spatial working memory
- effect on spatial working memory (RAWM) in words ([11]; listed as Tadalafil): did not improve
- ability to cross the BBB in words [12]: unlikely to cross it; also recorded: does not cross it
- ability to cross the BBB in words ([12]; listed as Tadalafil): does not cross it
- contextual freezing time ([13]; 3 month-old APP/PS1, sildenafil 3 mg/Kg or tadalafil 1 mg/Kg i.p., 24 hrs after training): 18.76±3.89%
- contextual freezing time as % of vehicle-treated APP/PS1 mice ([13]; 3 month-old APP/PS1, tadalafil 1 mg/Kg i.p.): ~122%
- contextual freezing as % of vehicle-treated WT mice [13, 17]: ~85%
- contextual freezing time [13, 17]: 28.29±3.30%
- effect on contextual fear memory in words [13]: does not modify contextual fear conditioning
- effect on contextual fear memory in words ([13]; listed as Tadalafil): did not improve associative learning
